Each structure is given as a SMILES string. Converted amounts (≈) assume the structure as drawn. Structures can show the parent of a compound that is named as a salt. Where only a bound is given, the exact number is not on record here.

One series is described as follows: physchem. The note with it: organic solvent or mixture, thermodynamic from solid.
Series [1] is described as follows: Solubility of poorly water-soluble APIs in propylene carbonate. The class given is physicochemical. The note with it: organic solvent or mixture, thermodynamic from solid, solvent added in 10 μl steps to about 20 mg, mean of three samples. The procedure:
For a preliminary analysis, 1-2 mg of each compound was weighted in an Eppendorf tube and 1 ml propylene carbonate was added. The mixture was mixed with a metal spatula for 10 min each. The solubility of compounds, which were fully dissolved in the preliminary tests where than further analyzed. About 20 mg of each compound were used and under stirring with a metal spatula propylene carbonate was added in 10 μl steps.

Series [2] is described as follows: Biphasic dissolution test (BiPHa+). The class given is in vitro ADME. The source says: This approach was chosen to simulate the gastrointestinal properties to obtain in vivo predictive results.
The transition to the organic phase can be understood as absorption of active substances into the blood.
To simulate the gastrointestinal properties to obtain in vivo predictive results, the pH-profile, bile salt concentration and gastrointestinal passage time were adjusted in the aqueous phase to mimic human gut conditions. An organic phase of 1-decanol above the aqueous phase imitated the fraction absorbed from the gut. As a test model, the profile of a person without prior food intake was chosen. Therefore, FaSSIF-V2 medium, which represents the bile salts concentration of a fasted human was used. […] To generate an in-situ biorelevant aqueous medium for the fasted state, biorelevant surfactants, namely sodium-taurocholate (3 mM) and lecithin (0.2 mM), were added.
Prior to the start of the experiments, both phases, 1-decanol and the acidic aqueous phase, were saturated with each other. First, the respective formulation was added (Table 2) to 50 mL HCl (0.1 M), simulating the stomach. During the first 30 min the formulation disintegrated/dispersed in 50 ml of 0.1 M HCl. After 30 min FaSSIF-V2 concentrate (sodium-taurocholate and lecithin) was added simultaneously to the addition of citrate-phosphate buffer (tri-potassium phosphate and potassium citrate) resulting in a first pH-shift from pH 1 to pH 5.5, simulating the duodenum. Thereafter, 50 mL 1-decanol was added. […] The adjusted buffers were titrated by 0.1 M NaOH and 0.1 M HCl (pH 5.5-6.8). The whole dissolution took 4.5 hours.
For each compound, the biphasic dissolution test was performed in triplicate. In order to evaluate the liquisolid formulations in terms of their performance, each liquisolid formulation was compared to a respective commercially available formulation.
The market formulations (Originator) of the selected APIs were tested additionally to compare the performance against established marked products.

Protocol for physchem: Therefore, 1 mg of each compound was weighted in an Eppendorf tube and 1 ml of solvent was added. The mixture was mixed with a metal spatula for 10 min each. […] About 20 mg of each compound were used and under stirring with a metal spatula the solvent was added in 10 μl steps.

`COCCOC(=O)C1=C(C)NC(C)=C(C(=O)OC(C)C)C1c1cccc([N+](=O)[O-])c1` (stereo not drawn) [Nimodipine]: in the series “physchem”, the solubility at 10 min is below 1 mg/mL. Also, in series [1], the solubility came out at 144 mg/mL (≈ 345 mM).

Consider `CC(=O)Oc1ccc(C(c2ccc(OC(C)=O)cc2)c2ccccn2)cc1` [Bisacodyl], for which, in series [1], the solubility stood at 91.5 mg/mL (≈ 253 mM).

Regarding `COC1=CC(=O)C[C@@H](C)[C@]12Oc1c(Cl)c(OC)cc(OC)c1C2=O` [Griseofulvin], in series [1], the solubility was found to be 16.8 mg/mL (≈ 47.7 mM).

As for `Cc1ccc(S(=O)(=O)NC(=O)NN2CC3CCCC3C2)cc1` (stereo not drawn) [Gliclazide], in series [1], the solubility was 32.3 mg/mL (≈ 99.8 mM).

Turning to `Cc1ccc(-c2cc(C(F)(F)F)nn2-c2ccc(S(N)(=O)=O)cc2)cc1` [Celecoxib], the “Maximum Partitioned Drug in the Organic Phase” value is listed as 41% in series [2] (Market Formulation (Originator, Table 11)); 54% in series [2] (PC Silsol ® Formulation (propylene carbonate on mesoporous silica)); 46% in series [2] (PEG 400 Silsol ® Formulation); 53% in series [2] (TEG Silsol ® Formulation). In addition, in series [2] (same in vitro biphasic dissolution conditions, in words), the “result of propylene carbonate formulation compared to commercially available market formulation” value is “even better results”. Besides, the solubility at 10 min in the series “physchem” (glycerol) was below 1 mg/mL. The solubility in “physchem” (polyethylene glycol 400 (PEG 400)) amounted to 230 mg/mL (≈ 603 mM); in “physchem” (propylene glycol (PG)), 60.3 mg/mL (≈ 158 mM); in “physchem” (tetraglycole (TEG)), 244 mg/mL (≈ 641 mM); in series [1], 267 mg/mL (≈ 699 mM).

Turning to `CN1CCN(C2=Nc3cc(Cl)ccc3Nc3ccccc32)CC1` [Clozapine], the solubility in series [1] came out at 4.79 mg/mL (≈ 14.7 mM).

As for `COc1ccc2c(c1)c(CC(=O)O)c(C)n2C(=O)c1ccc(Cl)cc1` [Indomethacin], the solubility in series [1] was determined as 17.2 mg/mL (≈ 48.1 mM).

`CN(C)CCCN1c2ccccc2CCc2ccccc21` [Imipramine hydrochloride]: the solubility in series [1] came out at 167 mg/mL.
